Data published in ChEMBL document CHEMBL3763077, “Discovery of pyrrolospirooxindole derivatives as novel cyclin dependent kinase 4 (CDK4) inhibitors by catalyst-free, green approach” (Eur J Med Chem, 2016).
Active and inactive are the calls of the source. The calls are words filed in the database; no cut-off is given here.

How the values were obtained:
[1] = system: HeLa; experiment: Cytotoxicity against human HeLa cells assessed as cell growth inhibition after 48 hrs by MTT assay; assay type: functional, cell-based
[2] = system: HT-29; experiment: Cytotoxicity against human HT-29 cells assessed as cell growth inhibition after 48 hrs by MTT assay; assay type: functional, cell-based; conditions: HT-29, 48 h
[3] = system: A549; experiment: Cytotoxicity against human A549 cells assessed as cell growth inhibition after 48 hrs by MTT assay; assay type: functional, cell-based; conditions: A549, 48 h
[4] = system: MDA-MB-231; experiment: Cytotoxicity against human MDA-MB-231 cells assessed as cell growth inhibition after 48 hrs by MTT assay; assay type: functional, cell-based; conditions: MDA-MB-231, 48 h
[5] = Cytotoxicity against human DU145 cells assessed as cell growth inhibition after 48 hrs by MTT assay; assay type: functional, cell-based; conditions: DU-145, 48 h
[6] = system: DU-145; experiment: Induction of apoptosis in human DU145 cells assessed as viable cells at 1 uM after 48 hrs by annexin V-FITC/PI staining based flow cytometry (reference value: 95.57 %); assay type: functional; conditions: DU-145, 48 h, read-out: Activity
[7] = system: DU-145; experiment: Change in mitochondrial membrane potential in human DU145 cells at 1 uM after 48 hrs by JC-1 staining based flow cytometry (reference value: 95.6%); assay type: functional
[8] = Cell cycle arrest in human DU145 cells assessed as accumulation at G2/M phase at 1 uM after 48 hrs by propidium iodide staining based flow cytometry (reference value: 5.96 %); assay type: functional; conditions: DU-145
[9] = Cell cycle arrest in human DU145 cells assessed as accumulation at G0/G1 phase at 1 uM after 48 hrs by propidium iodide staining based flow cytometry (reference value: 81.67 %); assay type: functional; conditions: DU-145
[10] = system: DU-145; experiment: Induction of apoptosis in human DU145 cells assessed as viable cells at 2 uM after 48 hrs by annexin V-FITC/PI staining based flow cytometry (reference value: 95.57 %); assay type: functional; conditions: DU-145, 48 h, read-out: Activity
[11] = Cell cycle arrest in human DU145 cells assessed as accumulation at S phase at 2 uM after 48 hrs by propidium iodide staining based flow cytometry (reference value: 1.59 %); assay type: functional; conditions: DU-145
[12] = system: DU-145; experiment: Induction of apoptosis in human DU145 cells assessed as early apoptotic cells at 2 uM after 48 hrs by annexin V-FITC/PI staining based flow cytometry (reference value: 2.13 %); assay type: functional
[13] = Cell cycle arrest in human DU145 cells assessed as accumulation at sub G1 phase at 1 uM after 48 hrs by propidium iodide staining based flow cytometry (reference value: 8.20 %); assay type: functional; conditions: DU-145
[14] = Up regulation of Kip1/p27 expression in human DU145 cells at 1 to 2 uM after 48 hrs by Western blot analysis; assay type: functional, cell-based; conditions: DU-145
[15] = Cell cycle arrest in human DU145 cells assessed as accumulation at G0/G1 phase at 2 uM after 48 hrs by propidium iodide staining based flow cytometry (reference value: 81.67 %); assay type: functional; conditions: DU-145
[16] = system: DU-145; experiment: Change in mitochondrial membrane potential in human DU145 cells at 2 uM after 48 hrs by JC-1 staining based flow cytometry (reference value: 95.6%); assay type: functional
[17] = system: DU-145; experiment: Induction of apoptosis in human DU145 cells assessed as late apoptotic cells at 2 uM after 48 hrs by annexin V-FITC/PI staining based flow cytometry (reference value: 1.63 %); assay type: functional
[18] = Up regulation of Cip1/p21 expression in human DU145 cells at 1 to 2 uM after 48 hrs by Western blot analysis; assay type: functional, cell-based; conditions: DU-145
[19] = system: DU-145; experiment: Induction of apoptosis in human DU145 cells assessed as necrotic cells at 1 uM after 48 hrs by annexin V-FITC/PI staining based flow cytometry (reference value: 0.67 %); assay type: functional
[20] = Down regulation of CDK4 expression in human DU145 cells at 1 to 2 uM after 48 hrs by Western blot analysis; assay type: functional, cell-based; conditions: DU-145
[21] = system: DU-145; experiment: Induction of apoptosis in human DU145 cells assessed as necrotic cells at 2 uM after 48 hrs by annexin V-FITC/PI staining based flow cytometry (reference value: 0.67 %); assay type: functional
[22] = Cell cycle arrest in human DU145 cells assessed as accumulation at S phase at 1 uM after 48 hrs by propidium iodide staining based flow cytometry (reference value: 1.59 %); assay type: functional; conditions: DU-145
[23] = Cell cycle arrest in human DU145 cells assessed as accumulation at G2/M phase at 2 uM after 48 hrs by propidium iodide staining based flow cytometry (reference value: 5.96 %); assay type: functional; conditions: DU-145
[24] = system: DU-145; experiment: Induction of apoptosis in human DU145 cells assessed as late apoptotic cells at 1 uM after 48 hrs by annexin V-FITC/PI staining based flow cytometry (reference value: 1.63 %); assay type: functional
[25] = Cell cycle arrest in human DU145 cells assessed as accumulation at sub G1 phase at 2 uM after 48 hrs by propidium iodide staining based flow cytometry (reference value: 8.20 %); assay type: functional; conditions: DU-145
[26] = system: DU-145; experiment: Induction of apoptosis in human DU145 cells at assessed as early apoptotic cells 1 uM after 48 hrs by annexin V-FITC/PI staining based flow cytometry (reference value: 2.13 %); assay type: functional

Cc1ccc2c(c1)C1(Nc3ccccc3-n3cccc31)C(=O)N2 (stereo not given)
IC50 [1]: 11.2 µM | IC50 [2]: 14.5 µM | IC50 [3]: 13.5 µM | IC50 [4]: 22.1 µM | IC50 [5]: 12.5 µM

COc1ccc2c(c1)C1(Nc3ccccc3-n3cccc31)C(=O)N2 (stereo not given)
IC50 [1]: 14.8 µM | IC50 [2]: 14.7 µM | IC50 [3]: 13.8 µM | IC50 [4]: 15.7 µM | IC50 [5]: 11 µM

O=C1Nc2ccc(Cl)cc2C12Nc1ccccc1-n1cccc12 (stereo not given)
IC50 [1]: 4.88 µM | IC50 [2]: 11 µM | IC50 [3]: 4.81 µM | IC50 [4]: 26.3 µM | IC50 [5]: 4.79 µM

O=C1Nc2ccc(I)cc2C12Nc1ccccc1-n1cccc12 (stereo not given)
IC50 [1]: 16.7 µM | IC50 [2]: 19 µM | IC50 [3]: 22.4 µM | IC50 [4]: 27.1 µM | IC50 [5]: 15.7 µM

O=C1Nc2ccc(Br)cc2C12Nc1ccccc1-n1cccc12 (stereo not given)
IC50 [1]: 16.4 µM | IC50 [2]: 17 µM | IC50 [3]: 4.9 µM | IC50 [4]: 29.7 µM | IC50 [5]: 3.98 µM

O=C1Nc2ccc(F)cc2C12Nc1ccccc1-n1cccc12 (stereo not given)
IC50 [1]: 15.1 µM | IC50 [2]: 15.8 µM | IC50 [3]: 23.4 µM | IC50 [4]: 31.4 µM | IC50 [5]: 12.7 µM

O=C1N(Cc2ccccc2)c2ccc(Cl)cc2C12Nc1ccccc1-n1cccc12 (stereo not given)
IC50 [1]: 4.86 µM | IC50 [2]: 19 µM | IC50 [3]: 4.79 µM | IC50 [4]: 26.6 µM | IC50 [5]: 4.71 µM

O=C1Nc2ccc([N+](=O)[O-])cc2C12Nc1ccccc1-n1cccc12 (stereo not given)
IC50 [1]: 12.9 µM | IC50 [2]: 15.6 µM | IC50 [3]: 16.1 µM | IC50 [4]: 17.4 µM | IC50 [5]: 22.7 µM

O=C1N(Cc2ccccc2)c2ccccc2C12Nc1ccccc1-n1cccc12 (stereo not given)
IC50 [1]: 20 µM | IC50 [2]: 17.4 µM | IC50 [3]: 17 µM | IC50 [4]: 26.2 µM | IC50 [5]: 13.2 µM

COc1cccc2c1C(=O)c1c(O)c3c(c(O)c1C2=O)C[C@@](O)(C(=O)CO)C[C@@H]3O[C@H]1C[C@H](N)[C@H](O)[C@H](C)O1 [DOXORUBICIN]
IC50 [2]: 1.16 µM | IC50 [3]: 1.06 µM | IC50 [4]: 1.67 µM | IC50 [5]: 1.82 µM

O=C1N(Cc2ccccc2)c2ccc(Br)cc2C12Nc1ccccc1-n1cccc12 (stereo not given)
IC50 [1]: 21 µM | IC50 [2]: 18.1 µM | IC50 [3]: 16.6 µM | IC50 [4]: 23.7 µM | IC50 [5]: 11.2 µM

O=C1Nc2c(F)cccc2C12Nc1ccccc1-n1cccc12 (stereo not given)
IC50 [1]: 12.4 µM | IC50 [2]: 12.7 µM | IC50 [3]: 11.3 µM | IC50 [4]: 15.9 µM | IC50 [5]: 12.7 µM

O=C1N(Cc2ccc3c(c2)OCO3)c2ccccc2C12Nc1ccccc1-n1cccc12 (stereo not given)
IC50 [1]: 4.53 µM | IC50 [2]: 15.1 µM | IC50 [3]: 7.59 µM | IC50 [4]: 30 µM | IC50 [5]: 3.98 µM

O=C1N(Cc2ccc3c(c2)OCO3)c2ccc(Cl)cc2C12Nc1ccccc1-n1cccc12 (stereo not given)
viability at 1 µM [6]: 60.6% | Activity [7]: 87.7% | Activity [8]: 4.2% | Activity [9]: 85.2% | viability at 2 µM [10]: 55% | Activity [11]: 2.94% | Activity [12]: 27.36% | IC50 [1]: 2.45 µM | Activity [13]: 6.98% | Activity [14]: Active | Activity [15]: 58.8% | IC50 [2]: 1.63 µM | Activity [16]: 72.2% | Activity [17]: 16.03% | Activity [18]: Active | IC50 [3]: 2.11 µM | IC50 [4]: 2.34 µM | Activity [19]: 2% | Activity [20]: Active | Activity [21]: 1.63% | Activity [22]: 1.21% | Activity [23]: 4.46% | Activity [24]: 15.42% | Activity [25]: 29.1% | IC50 [5]: 1.16 µM | Activity [26]: 21.95%

O=C1Nc2ccccc2C12Nc1ccccc1-n1cccc12 (stereo not given)
IC50 [1]: 4.57 µM | IC50 [2]: 4.11 µM | IC50 [3]: 7.1 µM | IC50 [4]: 8.84 µM | IC50 [5]: 6.03 µM
